# What was measured:
# [1] = system: male C57BL6 mice; experiment: LPS model of systemic shock in mice, survival and symptomatology score; type: in vivo; details: LPS 8 mg/kg i.p.
# Protocol: To that end an additional assay was carried out in which all the animals included were 12-week old male C57BL6 mice. The experiments were carried out strictly complying with the standard entitled Guidance on the Operation of Animals (Scientific Procedures, Act. 1986). The animals were subjected to their respective quarantine period and were treated with maximum precaution to minimize possible contaminations during treatments and handling.
# The mice were split up into three experimental groups: control group (n=8); control+LPS group (n=16); NST0060+LPS group (n=16). The mice were i.p. administered two doses of 50 mg/kg of NST0060 (in its lactone form) spaced out 12 hours from one another. 0.5% methyl cellulose in physiological saline, which was administered to the mice in the control groups with the same administration regimen, was used as a vehicle. Peripheral systemic inflammation was induced one hour after the last treatment by means of a single i.p. injection of LPS at 8 mg/kg. Half the mice in which systemic shock was induced (8 animals from the control+LPS group and 8 animals from the NST0060+LPS group) were sacrificed 2 hours after the inoculation of the LPS. Blood was taken and plasma was obtained, and both were frozen. […] The concentration of the inflammatory cytokines TNFα and IL-1β was evaluated in the plasma obtained by means of ELISA.
# [2] = system: zebrafish (Danio rerio, AB strain) embryos; experiment: Zebrafish embryo acute toxicity, percentage of healthy larvae; details: mean±SD
# [3] = system: human neuroblastoma SK-N-MC cells; experiment: Inhibition of DNA fragmentation (sub-G1, flow cytometry) in camptothecin cell model of apoptosis; type: cell-based; details: pretreatment 24 hours at 10 μM; 50 μM CPT 6 hours
# Protocol: The assay was performed on human neuroblastoma SK-N-MC cells in culture, maintained as described in section 2.1.
# The inhibition caused by compound NST0060 with respect to apoptosis caused by treatment with camptothecin (CPT), which inhibits the topoisomerase I enzyme, prevents DNA duplication and triggers apoptotic cell death. These cells, not exceeding 15 passages, were seeded on 6-well plates treated for adherent cells with a cell concentration of 7×10^5 cells/well; 2 wells of the plate were seeded for each assay condition.
# After 24 hours of cell incubation (at 37° C. and 5% CO2), cell pretreatment was performed with 10 and 40 μM of NST0060 for 24 hours; they were subsequently treated with 50 μM CPT for 6 hours. Furthermore, Z-VAD-fmk at 50 μM was used as positive control for inhibition.
# After treatment, the cells were collected along with their culture medium and centrifuged at 300×g for 5 minutes. The medium was removed, a washing was performed with PBS and the cells were fixed for 2 minutes with 500 μl of 70% ethanol at −20° C. […] After this time they were analyzed by flow cytometry, comparing the fluorescence of propidium iodide with respect to the amount of DNA. The percentage of apoptosis was measured on the sub-G1 region of each of the conditions.
# [4] = system: seladin-1/DHCR24 gene; experiment: Induction of seladin-1/DHCR24 gene expression, quantitative RT-PCR; type: cell-based, human; details: 4 μM, 24 hours, GAPDH-normalized; increase at all tested concentrations (1, 4, 10, 40 μM)
# Protocol: The assay was performed on human neuroblastoma SK-N-MC cells in culture from the American Type Culture Collection (ATCC), in all cases strict rules of sterility were followed and the manipulation was performed in class II biological safety cabinets following European standard EN 12469. The cells were maintained in the following culture medium: Minimum Essential Medium Eagle (MEM) supplemented with 1 mM sodium pyruvate, 2 mM L-glutamine, 0.1 mM non-essential amino acids, 0.05 mg/ml gentamicin and 10% fetal bovine serum.
# Real-time quantitative RT-PCR was used to analyze the expression of the seladin-1/DHCR24 gene. The SK-N-MC cells were treated for 24 hours in the absence (control) or presence of NST0060 at 1, 4, 10 or 40 μM. The total RNA was extracted by means of the High Pure RNA Isolation kit (Roche) and the RNA amount and quality were analyzed by means of spectrophotometry in the Infinite 200 NanoQuant system (Tecan). The RT-PCR was performed by means of two steps, first, the mRNA was transformed to cDNA using the RNA to cDNA kit (Applied Biosystem) and the gene expression was subsequently analyzed by means of TaqMan probes using the validated probes Hs00207388_m1 for seladin-1/DHCR24 and Hs99999905_m1 for GAPDH (used to normalize the results), both of which are human-specific, in the 7500 Fast Real-Time PCR System equipment (Applied Biosystem). […]
smiles,measurement,setting,value
"CCCC(CCC)C(=O)O[C@H]1C[C@@H](C)C=C2C=C[C@H](C)[C@H](CC[C@@H]3C[C@@H](O)CC(=O)O3)[C@H]21 [NST0060, 2-propylpentanoic acid (1S,3R,7S,8S,8aR)-1,2,3,7,8,8a-hexahydro-3,7-dimethyl-8-[2-[(2R,4R)-tetrahydro-4-hydroxy-6-oxo-2H-pyran-2-yl]ethyl]-1-naphthalenyl ester]",survival rate / mortality induced by LPS,"[1]; two i.p. doses of 50 mg/kg (lactone form), observed 15 days",mortality induced by LPS is prevented in a statistically significant manner
same,score associated with the symptomatology (0 to 3),"[1]; two i.p. doses of 50 mg/kg, statistically significant at 24 hours",lower severity of the systemic shock process
same,percentage of healthy larvae,[2]; dose of 1 mg/Kg,100±0.0%
same,percentage of healthy larvae,[2]; dose of 3 mg/Kg,86.7±6.2%
same,maximum protection against apoptosis (DNA fragmentation) caused by CPT,[3],41%
same,increase of seladin-1/DHCR24 gene expression with respect to the control,[4],2.5 fold
